Molecules are shown by their SMILES.

The source of these data is patent publication US20230072683A1, “PYRIDO-PYRIMIDIN DERIVATIVES AND PHARMACEUTICAL COMPOSITION, FOR USE IN PREVENTING OR TREATING PI3 KINASE RELATED DISEASES, COMPRISING SAME AS ACTIVE INGREDIENT” (BORYUNG PHARMACEUTICAL CO., LTD, priority 2019, published 2023).

Experiment [1] addresses PI3K-δ (PI3K(p1108/p857) (h)) (Homo sapiens, UniProt O00329). The experiment in a line: Evaluation of inhibitory activity against PI3K-δ (HTRF kinase assay). Format: biochemical. As to conditions: for inhibition at 0.01 µM: compound concentration 0.01 μM, read-out: EXP_VALUE(% Inhibition) PI3K-δ 0.01 μM; for inhibition at 0.1 µM: compound concentration 0.1 μM, read-out: EXP_VALUE(% Inhibition) PI3K-δ 0.1 μM. The procedure, abridged:
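HTRF read-out (665/620 nm ratio ×10000) used Eu-labelled anti-GST, GST-tagged GRP1 PH domain and streptavidin-allophycocyanin after EDTA/PIP3 stop.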

The next experiment deals with DNA-PK(h) (Homo sapiens, UniProt P78527). The experiment in a line: Evaluation of inhibitory activity against DNA-PK (HTRF kinase assay, GST-cMyc-p53 substrate). To be noted: for inhibition at 0.01 µM: compound concentration 0.01 μM, read-out: EXP_VALUE(% Inhibition) DNA-PK(h) 0.01 μM; for inhibition at 0.1 µM: compound concentration 0.1 μM, read-out: EXP_VALUE(% Inhibition) DNA-PK(h) 0.1 μM. It is filed as biochemical. In a few lines: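 p53 Ser15 phosphorylation by human DNA-PK was measured by time-resolved FRET ratio (665/620 nm ×10000) using Eu-labelled anti-phospho-Ser15 and d2 anti-GST antibodies. Substrate GST-cMyc-p53 at 50 μM; Mg/ATP-initiated, 30 min at room temperature, EDTA stop.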
(In general: Time-resolved FRET reads energy transfer from a long-lived donor to a nearby acceptor.)

Sequence of PI3K-δ (PI3K(p1108/p857) (h)) (O00329 whole entry, the tested form may be a part): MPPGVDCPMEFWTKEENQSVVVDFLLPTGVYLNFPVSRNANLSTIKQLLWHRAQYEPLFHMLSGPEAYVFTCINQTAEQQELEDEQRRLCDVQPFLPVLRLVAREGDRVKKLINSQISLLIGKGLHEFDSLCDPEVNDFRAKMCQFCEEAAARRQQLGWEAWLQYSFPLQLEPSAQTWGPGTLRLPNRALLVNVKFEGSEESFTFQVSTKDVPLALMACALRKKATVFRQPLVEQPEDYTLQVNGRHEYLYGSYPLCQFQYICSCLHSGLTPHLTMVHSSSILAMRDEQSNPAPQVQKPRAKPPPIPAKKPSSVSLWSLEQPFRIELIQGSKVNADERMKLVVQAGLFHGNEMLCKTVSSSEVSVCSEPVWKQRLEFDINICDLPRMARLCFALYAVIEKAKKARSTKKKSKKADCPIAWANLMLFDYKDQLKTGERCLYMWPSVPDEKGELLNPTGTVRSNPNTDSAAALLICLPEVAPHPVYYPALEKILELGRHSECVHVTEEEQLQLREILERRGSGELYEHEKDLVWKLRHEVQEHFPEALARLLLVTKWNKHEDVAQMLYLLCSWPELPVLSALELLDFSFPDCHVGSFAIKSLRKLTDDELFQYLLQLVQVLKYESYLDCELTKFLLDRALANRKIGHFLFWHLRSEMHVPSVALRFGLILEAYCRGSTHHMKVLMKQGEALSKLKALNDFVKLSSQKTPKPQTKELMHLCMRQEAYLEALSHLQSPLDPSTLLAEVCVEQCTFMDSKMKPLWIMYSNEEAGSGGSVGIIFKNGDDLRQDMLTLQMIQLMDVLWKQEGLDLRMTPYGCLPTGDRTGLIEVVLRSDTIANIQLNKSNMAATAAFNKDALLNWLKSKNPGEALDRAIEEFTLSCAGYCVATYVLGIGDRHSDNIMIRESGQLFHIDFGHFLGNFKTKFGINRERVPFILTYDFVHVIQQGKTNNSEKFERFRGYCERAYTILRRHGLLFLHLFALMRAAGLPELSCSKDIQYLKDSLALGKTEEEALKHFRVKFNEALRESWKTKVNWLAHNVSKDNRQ
Sequence of PI3K-δ (PI3K(p1108/p857) (h)) (P27986 whole entry partner, the tested form may be a part): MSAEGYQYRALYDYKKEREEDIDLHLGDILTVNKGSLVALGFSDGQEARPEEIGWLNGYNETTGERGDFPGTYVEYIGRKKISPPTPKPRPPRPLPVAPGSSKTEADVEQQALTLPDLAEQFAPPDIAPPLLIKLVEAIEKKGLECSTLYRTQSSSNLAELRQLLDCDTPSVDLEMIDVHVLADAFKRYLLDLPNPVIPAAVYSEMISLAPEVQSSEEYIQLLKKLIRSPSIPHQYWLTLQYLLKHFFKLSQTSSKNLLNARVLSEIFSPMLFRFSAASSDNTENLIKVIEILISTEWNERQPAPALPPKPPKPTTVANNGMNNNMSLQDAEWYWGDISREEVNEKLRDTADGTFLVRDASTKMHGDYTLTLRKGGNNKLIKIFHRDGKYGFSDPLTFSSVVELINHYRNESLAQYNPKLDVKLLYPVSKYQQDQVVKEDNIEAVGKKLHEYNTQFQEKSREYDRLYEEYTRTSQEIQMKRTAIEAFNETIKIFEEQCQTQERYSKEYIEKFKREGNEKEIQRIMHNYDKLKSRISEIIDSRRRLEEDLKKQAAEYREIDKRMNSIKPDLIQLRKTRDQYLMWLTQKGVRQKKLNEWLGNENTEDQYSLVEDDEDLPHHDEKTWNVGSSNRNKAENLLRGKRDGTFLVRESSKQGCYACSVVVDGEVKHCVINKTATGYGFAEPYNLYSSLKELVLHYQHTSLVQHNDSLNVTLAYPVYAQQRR

What is called inhibition is the change of the read-out against control, counted positive when it falls. Take `C[C@H](Nc1ncnc2[nH]ccc(=O)c12)c1c(Cl)c2cccc(-c3ccc4nccnc4c3)c2c(=O)n1-c1ccccc1` [Example 137, (S)-4-((1-(4-chloro-1-oxo-2-phenyl-8-(quinoxalin-6-yl)-1,2-dihydroisoquinolin-3-yl)ethyl)amino)pyrido[2,3-d]pyrimidin-5(8H)-one]: the values for the inhibition at 0.01 µM (in experiment [1]; on DNA-PK(h)) were 84% and 87%, respectively. Also, the inhibition at 0.1 µM in experiment [1] was found to be 92%; on DNA-PK(h) it was 100%.
In the same order, the values of `C[C@H](Nc1ncnc2[nH]ccc(=O)c12)c1c(Cl)c2cccc(-c3ccc(N4CCN(C(=O)OC(C)(C)C)CC4)cc3)c2c(=O)n1-c1ccccc1` [Example 138, tert-butyl(S)-4-(4-(4-chloro-1-oxo-3-(1-((5-oxo-5,8-dihydropyrido[2,3-d]pyrimidin-4-yl)amino)ethyl)-2-phenyl-1,2-dihydroisoquinolin-8-yl)phenyl)piperazin-1-carboxylate] are 33%, 32%, 81% and 75%.
In the same order, the values of `C[C@H](Nc1ncnc2[nH]ccc(=O)c12)c1c(Cl)c2cccc(-c3ccc(C(=O)N(C)C)cc3)c2c(=O)n1-c1ccccc1` [Example 139, (S)-4-(4-chloro-1-oxo-3-(1-((5-oxo-5,8-dihydropyrido[2,3-d]pyrimidin-4-yl)amino)ethyl)-2-phenyl-1,2-dihydroisoquinolin-8-yl)-N, N-dimethylbenzamide] are 51%, 74%, 94% and 96%.
As for `C[C@H](Nc1ncnc2[nH]ccc(=O)c12)c1c(Cl)c2cccc(-c3cc(Cl)ccc3F)c2c(=O)n1-c1ccccc1` [Example 140, (S)-4-((1-(4-chloro-8-(5-chloro-2-fluorophenyl)-1-oxo-2-phenyl-1,2-dihydroisoquinolin-3-yl)ethyl)amino)pyrido[2,3-d]pyrimidin-5(8H)-one], in experiment [1], the inhibition at 0.01 µM was 42% and the inhibition at 0.1 µM came to 87%. On DNA-PK(h), the inhibition at 0.01 µM amounted to 38% and the inhibition at 0.1 µM came to 84%.
In the same order, the values of `C[C@H](Nc1ncnc2[nH]ccc(=O)c12)c1c(Cl)c2cccc(-c3ccc(C4CC4)cc3)c2c(=O)n1-c1ccccc1` [Example 141, (S)-4-((1-(4-chloro-8-(4-cyclopropylphenyl)-1-oxo-2-phenyl-1,2-dihydroisoquinolin-3-yl)ethyl)amino)pyrido[2,3-d]pyrimidin-5(8H)-one] are 39%, 79%, 31% and 74%.
The corresponding values for `C=Cc1cccc2c(Cl)c([C@H](C)Nc3ncnc4[nH]ccc(=O)c34)n(-c3ccccc3)c(=O)c12` [Example 142, (S)-4-((1-(4-chloro-1-oxo-2-phenyl-8-vinyl-1,2-dihydroisoquinolin-3-yl)ethyl)amino)pyrido[2,3-d]pyrimidin-5(8H)-one] are 67%, 97%, 50% and 87%.
In the same order, the values of `CSc1ccc(-c2cccc3c(Cl)c([C@H](C)Nc4ncnc5[nH]ccc(=O)c45)n(-c4ccccc4)c(=O)c23)cc1` [Example 143, (S)-4-((1-(4-chloro-8-(4-(methylthio)phenyl)-1-oxo-2-phenyl-1,2-dihydroisoquinolin-3-yl)ethyl)amino)pyrido[2,3-d]pyrimidin-5(8H)-one] are 48%, 94%, 25% and 80%.
For the compound `C[C@H](Nc1ncnc2[nH]ccc(=O)c12)c1c(Cl)c2cccc(-c3ccc(SC(C)(C)C)cc3)c2c(=O)n1-c1ccccc1` [Example 144, (S)-4-((1-(8-(4-(tert-butylthio)phenyl)-4-chloro-1-oxo-2-phenyl-1,2-dihydroisoquinolin-3-yl)ethyl)amino)pyrido[2,3-d]pyrimidin-5(8H)-one], in experiment [1], the inhibition at 0.01 µM turned out to be 17% and the inhibition at 0.1 µM is 72%. Besides, on DNA-PK(h), the inhibition at 0.01 µM was 4% and the inhibition at 0.1 µM was 48%.
As to `C[C@H](Nc1ncnc2[nH]ccc(=O)c12)c1c(Cl)c2cccc(-c3ccc(C(=O)N4CCOCC4)cc3)c2c(=O)n1-c1ccccc1` [Example 145, (S)-4-((1-(4-chloro-8-(4-(morpholin-4-carbonyl)phenyl)-1-oxo-2-phenyl-1,2-dihydroisoquinolin-3-yl)ethyl)amino)pyrido[2,3-d]pyrimidin-5(8H)-one], the inhibition at 0.01 µM stood at 88% in experiment [1] and 93% on DNA-PK(h).
The corresponding values for `C[C@H](Nc1ncnc2[nH]ccc(=O)c12)c1c(Cl)c2cccc(-c3cnc(OCc4ccccc4)nc3)c2c(=O)n1-c1ccccc1` [Example 146, (S)-4-((1-(8-(2-(benzyloxy)pyrimidin-5-yl)-4-chloro-1-oxo-2-phenyl-1,2-dihydroisoquinolin-3-yl)ethyl)amino)pyrido[2,3-d]pyrimidin-5(8H)-one] are 84% and 35%.
In the same order, the values of `C[C@H](Nc1ncnc2[nH]ccc(=O)c12)c1c(Cl)c2cccc(-c3ccc(OCC(F)(F)F)nc3)c2c(=O)n1-c1ccccc1` [Example 147, (S)-4-((1-(4-chloro-1-oxo-2-phenyl-8-(6-(2,2,2-trifluoroethoxy)pyridin-3-yl)-1,2-dihydroisoquinolin-3-yl)ethyl)amino)pyrido[2,3-d]pyrimidin-5(8H)-one] are 69% and 48%.
In the same order, the values of `C[C@H](Nc1ncnc2[nH]ccc(=O)c12)c1c(Cl)c2cccc(-c3ccc(N4CCNCC4)cc3)c2c(=O)n1-c1ccccc1` [Example 148, (S)-4-((1-(4-chloro-1-oxo-2-phenyl-8-(4-(piperazin-1-yl)phenyl)-1,2-dihydroisoquinolin-3-yl)ethyl)amino)pyrido[2,3-d]pyrimidin-5(8H)-one] are 92% and 89%.
Consider `COc1cc(-c2cccc3c(Cl)c([C@H](C)Nc4ncnc5c4c(=O)ccn5-c4ccnc(OC)c4)n(-c4ccccc4)c(=O)c23)ccn1` [Example 149, (S)-4-((1-(4-chloro-8-(2-methoxypyridin-4-yl)-1-oxo-2-phenyl-1,2-dihydroisoquinolin-3-yl)ethyl)amino)-8-(2-methoxypyridin-4-yl)pyrido[2,3-d]pyrimidin-5(8H)-one], for which the inhibition at 0.01 µM in experiment [1] was determined as 2%; on DNA-PK(h), 7%.
The corresponding values for `COc1cc(-c2cccc3c(Cl)c([C@H](C)Nc4ncnc5[nH]ccc(=O)c45)n(-c4ccccc4)c(=O)c23)ccn1` [Example 150, (S)-4-((1-(4-chloro-8-(2-methoxypyridin-4-yl)-1-oxo-2-phenyl-1,2-dihydroisoquinolin-3-yl)ethyl)amino)pyrido[2,3-d]pyrimidin-5(8H)-one] are 105% and 93%.
The corresponding values for `CCCSc1ccc(-c2cccc3c(Cl)c([C@H](C)Nc4ncnc5[nH]ccc(=O)c45)n(-c4ccccc4)c(=O)c23)cc1` [Example 151, (S)-4-((1-(4-chloro-1-oxo-2-phenyl-8-(4-(propylthio)phenyl)-1,2-dihydroisoquinolin-3-yl)ethyl)amino)pyrido[2,3-d]pyrimidin-5(8H)-one] are 44% and 23%.
Consider `C[C@H](Nc1ncnc2[nH]ccc(=O)c12)c1c(Cl)c2cccc(-c3ccc(SC4CC4)cc3)c2c(=O)n1-c1ccccc1` [Example 152, (S)-4-((1-(4-chloro-8-(4-(cyclopropylthio)phenyl)-1-oxo-2-phenyl-1,2-dihydroisoquinolin-3-yl)ethyl)amino)pyrido[2,3-d]pyrimidin-5(8H)-one], for which the inhibition at 0.01 µM in experiment [1] is 58%; on DNA-PK(h) it was 36%.
The corresponding values for `C[C@H](Nc1ncnc2[nH]ccc(=O)c12)c1c(Cl)c2cccc(-c3cnc(C(F)(F)F)nc3)c2c(=O)n1-c1ccccc1` [Example 153, (S)-4-((1-(4-chloro-1-oxo-2-phenyl-8-(2-(trifluoromethyl)pyrimidin-5-yl)-1,2-dihydroisoquinolin-3-yl)ethyl)amino)pyrido[2,3-d]pyrimidin-5(8H)-one] are 77% and 46%.
In the same order, the values of `COc1cc(-c2cccc3c(Cl)c([C@H](C)Nc4ncnc5[nH]ccc(=O)c45)n(-c4ccccc4)c(=O)c23)cc(OC)c1F` [Example 154, (S)-4-((1-(4-chloro-8-(4-fluoro-3,5-dimethoxyphenyl)-1-oxo-2-phenyl-1,2-dihydroisoquinolin-3-yl)ethyl)amino)pyrido[2,3-d]pyrimidin-5(8H)-one] are 89% and 71%.
For `COc1ccc(-c2cccc3c(Cl)c([C@H](C)Nc4ncnc5[nH]ccc(=O)c45)n(-c4ccccc4)c(=O)c23)cc1OC` [Example 155, (S)-4-((1-(4-chloro-8-(3,4-dimethoxyphenyl)-1-oxo-2-phenyl-1,2-dihydroisoquinolin-3-yl)ethyl)amino)pyrido[2,3-d]pyrimidin-5(8H)-one], the inhibition at 0.01 µM in experiment [1] came to 95%; on DNA-PK(h), 87%.
